Results taken from patent US10273451B2, “Immortalization of cells including neuronal cells” (The Johns Hopkins University, priority 2005, dated 2019).

What was measured:
50B11 cells [1] = conditions: 24 hours
Method: Conditions for culturing the 50B11 cells and measuring the ATP levels were optimized for the 96-well plate format. Initially 500 cells/well were plated in 96-well plates for 24 hours and then differentiated with forskolin (50 μM) in culture medium with reduced serum (0.2%). […] Cellular ATP levels were measured using the ViaLight Plus kit (Cambrex, city, state) according to manufacturer's instructions. This luciferase-based assay allows measurement of ATP levels on a luminometer with minimal manipulation of the well contents.
Next, we tested whether we can evaluate the neurotoxicity of capsaicin in an assay suitable for 96-well plate format. Capsaicin causes axonal degeneration and death of nociceptive DRG sensory neurons [ref here]. In order to evaluate cell survival we used a luciferase-based assay to measure cellular ATP levels.

TRPV-1 = biological target: T1, TRPV-1 (Rattus norvegicus, UniProt O35433); test: Ca2+ microfluorimetry (fura-2 ratiometric imaging) of the capsaicin response; format: cell-based
T1 construct: endogenous in cells; host or cells: 50B11 immortalized rat DRG neuronal cell line, with and without forskolin differentiation
T1 sequence (O35433 whole entry): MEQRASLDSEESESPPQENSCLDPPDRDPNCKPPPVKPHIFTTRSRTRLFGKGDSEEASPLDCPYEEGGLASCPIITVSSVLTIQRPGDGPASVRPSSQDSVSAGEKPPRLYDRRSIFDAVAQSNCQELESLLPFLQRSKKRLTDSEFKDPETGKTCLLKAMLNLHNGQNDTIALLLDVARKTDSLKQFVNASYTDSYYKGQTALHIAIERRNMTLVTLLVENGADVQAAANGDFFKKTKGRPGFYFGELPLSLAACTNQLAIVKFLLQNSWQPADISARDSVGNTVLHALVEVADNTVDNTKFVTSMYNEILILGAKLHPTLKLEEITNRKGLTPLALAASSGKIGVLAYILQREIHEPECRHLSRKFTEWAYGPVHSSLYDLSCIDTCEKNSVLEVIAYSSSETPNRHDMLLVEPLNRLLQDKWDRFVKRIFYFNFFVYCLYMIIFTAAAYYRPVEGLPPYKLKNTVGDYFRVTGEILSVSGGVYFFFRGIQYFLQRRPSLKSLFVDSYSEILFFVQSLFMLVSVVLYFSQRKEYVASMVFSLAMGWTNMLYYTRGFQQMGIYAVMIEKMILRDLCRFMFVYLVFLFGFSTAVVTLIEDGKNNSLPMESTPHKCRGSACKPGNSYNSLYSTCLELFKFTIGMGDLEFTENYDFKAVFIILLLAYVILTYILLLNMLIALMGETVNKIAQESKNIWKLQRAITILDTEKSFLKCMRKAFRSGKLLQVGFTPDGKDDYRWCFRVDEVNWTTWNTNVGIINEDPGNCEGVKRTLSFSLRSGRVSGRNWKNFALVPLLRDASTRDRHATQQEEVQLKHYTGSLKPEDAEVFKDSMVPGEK
Method: Ca^2+ microfluorimetry and imaging in forskolin-differentiated 50HB cells were performed by ratiometric imaging of the Ca2+-sensitive fluorescent dye fura-2. Cells were grown on glass coverslips in 12-well dishes and calcium imaging was done with and without differentiation with 50-μM forskolin. Cell were loaded for 15 min at 37° C. with 2 M fura-2 acetoxymethyl ester (Molecular Probes, Carlsbad, Calif.) in Krebs-HEPES buffer (100 mM NaCl, 2.0 mM KCl, 1.0 mM CaCl2, 1.0 mM MgCl2, 1.0 mM NaH2PO4, 4.2 mM NaHCO3, 12.5 mM HEPES and 10.0 mM glucose), then washed for 3 times in buffer to remove remaining fura-2 ester. The coverslip with loaded cells was then mounted on an inverted epifluorescence microscope (Zeiss, Axiovert 200) and covered with 60 μl Krebs-HEPES buffer or buffer with capsaicin. In capsazepin pretreatment experiments, capsazepin was added Images were acquired every ˜3 seconds with an extended Hamamatsu Digital Camera C4742-95 (Hamamatsu Photonics, Barcelona, Spain) using a dual filter wheel (Sutter Instruments, Novato, Calif., USA) equipped with 340 and 380 nm, 10-nm-bandpass filters (Omega Optics, Madrid, Spain). Data was acquired using InCyt Im2 software (Intracellular Imaging, Inc.). Fluorescence changes are expressed as the ratio of fluorescence at 340 and 380 nm (F340/F380).

50B11 cells [2] = test: Axonal degeneration, total neurite length measurement; format: cell-based, rat; conditions: differentiated 50B11 cells treated 24 hours
50B11 cells [3] = test: Forskolin-induced differentiation and neurite extension of the immortalized DRG neuronal line; format: cell-based, rat; conditions: for neurite extension in presence of neurotrophic factor: 50B11 cells
Method: One of the immortalized DRG neuronal cell lines (50B11) maintained self-replication capability over many cell divisions (>300) and was used in further analysis of neuronal properties. Differentiation and axonal elongation was induced in these cells by addition of forskolin (50 μM) into the culture medium. Within hours, more than 90% cells stopped dividing and extended long neurites. These cells were grown in 24-well plates on glass coverslips, fixed with 4% paraformaldehyde and immunostained for presence of neurofilament (SMI-32 antibody from Stemberger Monoclonals Inc., Lutherville, Md.), ßIII-tubulin (Promega, Madison Wis.), transient receptor potential channel, vanilloid subfamily member-1 (TRPV-1) (Abeam, Cambridge, Mass.), calcitonin gene related protein (CGRP) (source, city, state) or isolectin B-4 (IB4) (Vector Laboratories, Burlingame, Calif.) using standard methods (Keswani et al., supra). Slides were counterstained with 4′,6-Diamidino-2-phenylindole (DAPI) and mounted with Vectashield (Vector Laboratories, Burlingame, Calif.). Specificity of all primary and secondary antibodies was confirmed using appropriate positive and negative control cultures.

50B11 cells [4] = test: Real-time PCR of gene expression changes; format: cell-based, rat
Method: For analysis of changes in gene expression, 501311 cells were grown in media containing forskolin (50 μM), NGF (10 ng/ml), GDNF (10 ng/ml) or vehicle control for 24 hours. Total RNA was isolated using the TRIzol Reagent according to the manufacturer's recommendation. Two μg total RNA was reverse-transcribed using Ready-To-Go You-Prime First-Strand Bead (Amersham Biosciences, Piscataway, N.J.) according to manufacturer's protocols. Real-time PCR was carried out in a DNA Engine Opticon Continuous Fluorescence Detection System using DyNAmo SYBR Green Polymerase (MJ Research, Waltham, Mass.). All primers were designed according to the individual gene sequence in the GenBank/EMBL nucleotide sequence database (primer sequences are available upon request). The binding positions of all primers were chosen to produce amplicons of 150 to 200 base pairs and to achieve maximum efficiency and specificity. All primer sequences were checked for specificity by a BLAST search in the GenBank/EMBL nucleotide sequence database. The primers were synthesized by Integrated DNA Technologies, Inc. (Coralville, Iowa). […] The expression levels of individual genes before and after treatment were calculated using the comparative CT method.

## CCC(C)(C)C(=O)C(=O)N1CCC[C@H]1C(=O)OCCCc1cccnc1 [GPI-1046]
50B11 cells [1]; co-administration with ddC
  prevention of ddC neurotoxicity (ATP levels): preventable

## COc1cc(CNC(=O)CCCC/C=C/C(C)C)ccc1O [capsaicin]
TRPV-1; 50B11 cells, fura-2 F340/F380
  intracellular calcium levels: rapid rise in intracellular calcium levels
50B11 cells [1]; 10 μM capsaicin, differentiated 50B11 cells
  reduction in ATP levels: about 50%

## Oc1cc2c(cc1O)CN(C(=S)NCCc1ccc(Cl)cc1)CCC2 [capsazepin]
TRPV-1; pretreatment of 50B11 cells before capsaicin
  prevention of capsaicin-induced rise in intracellular calcium: preventable
50B11 cells [1]; co-administration with capsaicin
  prevention of capsaicin-induced neurotoxicity (ATP levels): preventable

## Nc1ccn([C@H]2CC[C@@H](CO)O2)c(=O)n1 [ddC]
50B11 cells [2]
  toxicity by total neuritic lengths: validated this toxicity

## C=C[C@@]1(C)CC(=O)[C@]2(O)[C@@]3(C)[C@@H](O)CCC(C)(C)[C@@H]3[C@H](O)[C@H](OC(C)=O)[C@@]2(C)O1 [forskolin]
50B11 cells [3]; forskolin 50 μM in culture medium, within hours
  cells that stopped dividing and extended long neurites: more than 90%

## NGF: neurotrophic factor, nerve growth factor
50B11 cells [4]; forskolin plus NGF 10 ng/ml versus forskolin plus GDNF
  Trk-A upregulation: more upregulated
50B11 cells [3]
  neurite extension in presence of neurotrophic factor: extended longer neurites

B1: GDNF: neurotrophic factor acting on c-ret and GFRα-1 (protein, UniProt P39905 78-211, looked up)
Glial cell line-derived …: SPDKQMAVLPRRERNRQAAAANPENSRGKGRRGQRGKNRGCVLTAIHLNVTDLGLGYETKEELIFRYCSGSCDAAETTYDKILKNLSRNRRLVSDKVGQACCRPIAFDDDLSFLDDNLVYHILRKHSAKRCGCI
50B11 cells [4]; forskolin plus GDNF 10 ng/ml versus forskolin plus NGF
  GFRα-1 upregulation: more upregulated
50B11 cells [3]
  neurite extension in presence of neurotrophic factor: extended longer neurites
